According to patent publication US6348477B1, “Anti-herpesvirus compounds and methods for identifying, making and using same” (Boehringer Ingelheim(Canada) Ltd., priority 1995, dated 2002):

How the values were obtained:
HSV-1 strain F or KOS = test: Inhibition of herpes simplex virus (HSV-1) replication in cell culture (BHK-21 cells, glycoprotein C ELISA); format: cell-based; conditions: Group 1 Table 1
Method: B) Inhibition of Herpes Simplex Virus (HSV-1) Replication in Cell Culture
Assay: BHK-21 cells clone 13 (ATCC CCL10) were incubated for two days in 850 cm^2 roller bottles (2×10^7 cells/bottle) with α-MEM medium (Gibco Canada Inc., Burlington, Ontario, Canada) supplemented with 8% (v/v) fetal bovine serum (FBS, Gibco Canada, Inc.). The cells were trypsinized and then 3,000 cells in 100 μL of fresh medium were transferred into each well of a 96-well microtiter plate. The cells were incubated at 37° for a period of 3 days to reach a density of 50,000 cells per well. The cells were washed twice with 100 μL of α-MEM supplemented with 2% heat inactivated FBS and incubated for 1-2 hours in 100 μL of the same medium.
Thereafter, the cells were infected with HSV-1 strain F or KOS (multiplicity of infection=0.05 PFU/cell) in 50 μL of α-MEM supplemented with 2% heat inactivated FBS. Following one hour of virus absorption at 37°, the medium was removed and the cells were washed with α-MEM supplemented with 2% heat inactivated FBS (2×100 μL). The cells were incubated with or without 100 μL of the appropriate concentration of test reagent in α-MEM medium supplemented with 2% heat inactivated FBS. After 24 hours of incubation at 37°, the extent of viral replication was determined by an ELISA assay; for instance, the following assay that detects the late glycoprotein C of HSV-1.
Cells were fixed in the microtiter plate with 100 μL of 0.063% glutaraldehyde in phosphate buffered saline for 30 min at room temperature. The microtiter plate was then washed once with casein blocking solution and blocked with 200 μL of the same solution for one hour at room temperature. Thereafter, 100 μL of mAb C11 recognizing the glycoprotein C of HSV-1 (see E. Trybala et al., Journal of General Virology, 1994, 75, 743) was added to each well for two hours at room temperature. The plate was washed three times with phosphate buffered saline containing 0.05% polyoxyethylene (20) sorbitan monooleate. The cells were incubated with 100 μL of sheep anti-mouse IgG horseradish peroxidase for one hour at room temperature in the dark.
The plate was washed three times with 200 μL of the above-noted phosphate buffer saline preparation, and then once with 0.1 M sodium citrate (pH 4.5). Thereafter, 100 μL of orthophenylenediamine dihydrochloride (OPD, Gibco, Canada Inc.) was added to each well. The plate was agitated on a microplate shaker for 30 min in the dark. Color development was monitored at 450 nm using a microplate spectrophotometer.
SAS was used to calculate % inhibition of viral replication and to generate EC50 values.

HSV-1 helicase-primase = molecular target: T1, HSV-1 helicase-primase (Human herpesvirus 1, UniProt P10189+P10236); test: HSV-1 DNA-dependent ATPase assay (inhibition of HSV-1 helicase-primase); format: biochemical; conditions: Group 1 Table 1
T1 construct: made in house; host or cells: Sf21 insect cells triply infected with recombinant baculoviruses
From the text: A) HSV-1 DNA-Dependent ATP Assay (an in Vitro Assay Based on the Inhibition of HSV-1 Helicase-primase).
a) Preparation of enzyme: HSV-1 helicase-primase holoenzyme was produced in triply infected Sf21 cells using recombinant baculoviruses expressing the UL5, UL8 and UL52 helicase-primase subunits, as described by S. Dracheva et al., J. Biol. Chem. 1995, 270, 14148. The crude enzyme was purified by ammonium sulfate precipitation, Source 15Q® chromatography and Sephacryl® S-300 HR gel filtration (both purification systems can be obtained from Pharmacia Biotech Inc., Montreal, Quebec, Canada), see S. Dracheva et al., supra.
b) Assay: The DNA-dependent ATPase assay, described by J. J. Crute et al., Nucleic Acids Res. 1988, 16, 6585, was modified and used to evaluate the capability of the compounds of Group 1-formula 1 to inhibit HSV-1 helicase-primase activity. The reaction mixtures (80 μL each) contained 40 mM 4-(2-hydroxyethyl)-1-piperazineethanesulfonic acid (HEPES, pH 7.5), 10% (v/v) glycerol, 5.5 mM MgCl2, 1 mM DL-dithiothreitol (DTT), 50 μg/mL acetylated bovine serum albumin, 3.3% (v/v) DMSO, 4 mM ATP, 25 μM single-stranded M13 DNA hybridized to double-tailed 68-mer oligonucleotide and 3 μg/mL HSV-1 helicase-primase. After incubation for 20 min at 34°, formation of inorganic phosphate from hydrolysis of ATP was monitored spectrophotometrically at 650 nm using acidic ammonium molybdate/malachite green reagent, P. A. Lanzetta et al., Anal. Biochem. 1979, 100, 95. DNA-dependent ATPase activity was calculated from the net absorbance change in the presence and absence of inhibition.

HCMV (strain AD169) [1] = test: Inhibition of HCMV replication, plaque reduction assay (PRA, Hs-68 cells); format: cell-based, human cytomegalovirus; conditions: Group 1 Table 1; read-out: PRA CMV EC50
Method: (§1) C) Inhibition of Human Cytomegalovirus (HCMV) replication
(§2) The effect of compounds on the replication of HCMV has been measured by using an ELISA-based assay (ELISA) and a plaque reduction assay (PRA).
(§3) Hs-68 cells ( ATCC # CRL 1635) were seeded in 12-well plates at 83,000 cells/well in 1 mL of DMEM medium (Gibco Canada Inc.) supplemented with 10% fetal bovine serum (FBS, Gibco Canada Inc.). The plates were incubated for 3 days at 37° to allow the cells to reach 80-90% confluency prior to the assay.
The medium was removed from the cells by aspiration. The cells were then infected with approximately 50 PFU of HCMV (strain AD169, ATCC VR-538) in DMEM medium supplemented with 5% inactivated FBS (assay medium). The virus was allowed to adsorb to cells for 2 h at 37°. Following viral adsorption, the medium was removed from the wells by aspiration. The cells were then incubated with or without 1 mL of appropriate concentrations of test reagent in assay medium. After 4 days of incubation at 37°, the medium was exchanged with fresh medium containing test compound and 4 days later the cells were fixed with 1% aqueous formaldehyde and stained with a 2% crystal violet solution in 20% ethanol in water. Microscopic plaques were counted using a stereomicroscope. Drug effects were calculated as a percent reduction in the number of plaques in the presence of each drug concentration compared to the number observed in the absence of drug. Ganciclovir was used as a positive control in all experiments.
The EC50 values obtained according to this assay for certain thiazolyl derivatives of this invention are listed in the following tables under the heading PRA CMV.

HCMV (strain AD169) [2] = test: Inhibition of HCMV replication, ELISA assay (Hs-68 cells, p28); format: cell-based, human cytomegalovirus; conditions: Group 1 Table 1; read-out: ELISA CMV EC50
Method: as §1, §2
as §3, with “(ATCC” for “( ATCC”, “96 well microtiter” for “12-well”, “10,000” for “83,000”, “100 μL” for “1 mL”
The medium was removed from wells by aspiration. The cells then were infected at a multiplicity of infection (MOI) of 0.01 PFU/cell with 50 μL of HCMV (strain AD169, ATCC VR-538) in DMEM medium supplemented with 5% heat inactivated FBS (assay medium). The virus was allowed to adsorb to cells for 2 h at 37°. Following viral adsorption, the medium was removed from the wells by aspiration. The cells were washed twice with 200 μL of assay medium to remove unabsorbed virus. The cells were then incubated with or without 100 μL of appropriate concentrations of test reagent in assay medium. After 8 days of incubation at 37°, the extent of viral replication was determined by an ELISA assay which detects the late structural protein p28 of HCMV.
Eight days after infection, the medium was aspirated from the wells. Non-specific binding sites were blocked by adding 200 μL of phosphate buffered saline containing 1% (w/v) bovine serum albumin (blocking buffer) to each well and incubating the plates for 30 min at room temperature. After removal of the blocking buffer by aspiration, the cells were fixed with 100 μL of cold ethanol-acetone solution (95:5) per well. The plates were placed at −20° for 30 min. The plates were washed 4 times with phosphate buffered saline containing 0.05% (v/v) polyoxyethylene sorbitan monolaurate (Tween 20®). Thereafter, 100 μL of mAb UL99 (Advanced Biotechnologies Inc., #13-130-100) recognizing HCMV protein p28 was added to each wells and plates were incubated for 2 h at room temperature. The plates were washed four times with 200 μL of the above-noted phosphate buffered saline/Tween-20® solution. The cells were then incubated with 100 μL of sheep anti-mouse IgGγ horseradish peroxidase conjugated for 2 h at room temperature. The plates were then washed four times with 200 μL of above-noted phosphate buffered saline/Tween-20®solution. Thereafter, 100 μL of ortho phenylenediamine dihydrochloride (OPD, Gibco Canada Inc.) solution was added to each well and the plates were agitated on a microplate shaker for 30 min in the dark. Color development was monitored at 450 nm using a microplate spectrophotometer.
The SAS program was used to calculate the % inhibition of viral replication and to generate EC50 values.
The EC50 values obtained according to this assay method for certain thiazolylphenyl derivatives of this invention are listed in the following tables under the heading ELISA CMV.

[3] = test system: HSV-1 acyclovir-resistant mutant strain PAA^r5; test: Acyclovir-resistant HSV-1 PAAr5 cutaneous infection in immunodeficient nu/nu mice, oral; format: in vivo; conditions: 100 mg/kg/day oral, tid for 10 days (FIG. 1)
Method: (§4) Animals were cutaneously inoculated with 10^7 PFU of HSV-1 acyclovir resistant mutant viruses. The resulting cutaneous lesions were scored according to a subjective scoring system. The compound of Group 1 (Entry No. 29 in table 1) was administered orally (gavage) in an acidified vehicle (0.033 N aqueous HCl, tid for 10 days). Animals were similarly treated with acyclovir in 0.033 N aqueous HCl or only with the vehicle (0.033 N aqueous HCl). […] The dose-dependent effect of treatment with Entry No. 29 at 25 mg/kg/day (-♦-), 50 mg/kg/day (-▴-), 75 mg/kg/day (-□-), 100 mg/kg/day (-●-) or 125 mg/kg/day (-▪-), compared to treatment with vehicle alone (-∘-), is shown in FIG. 2. The ED50 of Entry No. 29 was about 60 mg/kg/day. Similar experiments were done using the HSV-1 acyclovir-resistant mutant strain dlsptk (FIGS. 3 and 4). […] The dose-dependent effect of treatment with Entry No. 29 at 25 mg/kg/day (-♦-), 50 mg/kg/day (▴-), 75 mg/kg/day (-□-), 100 mg/kg/day (-●-) or 125 mg/kg/day (-▪-), compared to treatment with vehicle alone (-∘-), is shown in FIG. 4. The acyclovir-resistant HSV-1 strains, PAA^r5 and dlsptk, have been described by P. A. Furman et al., J. Virol., 1981, 40, 936 and by D. M. Coen et al., Proc. Natl. Acad. Sci., 1989, 86, 4736, respectively.

[4] = test system: HSV-1 acyclovir-resistant mutant strain dlsptk; test: Acyclovir-resistant HSV-1 dlsptk cutaneous infection in immunodeficient nu/nu mice, oral; format: in vivo; conditions: 100 mg/kg/day oral, tid for 10 days (FIG. 3)
Method: as §4

T1 sequence (P10189 whole entry): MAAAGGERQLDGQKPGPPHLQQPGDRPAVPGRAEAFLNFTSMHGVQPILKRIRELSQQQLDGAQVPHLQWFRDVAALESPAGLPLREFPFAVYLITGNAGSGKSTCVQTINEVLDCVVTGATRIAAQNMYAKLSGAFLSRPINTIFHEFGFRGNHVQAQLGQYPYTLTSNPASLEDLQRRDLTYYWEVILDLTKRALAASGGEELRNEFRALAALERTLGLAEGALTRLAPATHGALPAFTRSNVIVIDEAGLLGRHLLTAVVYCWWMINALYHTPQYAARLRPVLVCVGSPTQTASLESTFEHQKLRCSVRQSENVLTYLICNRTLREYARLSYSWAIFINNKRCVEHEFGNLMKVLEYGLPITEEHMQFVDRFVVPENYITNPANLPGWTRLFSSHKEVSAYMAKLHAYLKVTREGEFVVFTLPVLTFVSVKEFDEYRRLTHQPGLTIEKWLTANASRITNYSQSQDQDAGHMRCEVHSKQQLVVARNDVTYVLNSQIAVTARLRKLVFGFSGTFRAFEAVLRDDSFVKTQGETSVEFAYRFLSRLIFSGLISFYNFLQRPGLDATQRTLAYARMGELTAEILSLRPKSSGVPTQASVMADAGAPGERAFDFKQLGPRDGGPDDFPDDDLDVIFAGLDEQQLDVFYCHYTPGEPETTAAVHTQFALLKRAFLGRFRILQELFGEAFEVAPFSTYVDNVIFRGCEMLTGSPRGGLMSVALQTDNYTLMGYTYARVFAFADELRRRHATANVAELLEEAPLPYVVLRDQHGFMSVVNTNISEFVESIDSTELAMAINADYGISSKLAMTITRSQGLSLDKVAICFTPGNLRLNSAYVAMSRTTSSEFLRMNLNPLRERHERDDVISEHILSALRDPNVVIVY
T1 sequence (P10192 whole entry, further chain): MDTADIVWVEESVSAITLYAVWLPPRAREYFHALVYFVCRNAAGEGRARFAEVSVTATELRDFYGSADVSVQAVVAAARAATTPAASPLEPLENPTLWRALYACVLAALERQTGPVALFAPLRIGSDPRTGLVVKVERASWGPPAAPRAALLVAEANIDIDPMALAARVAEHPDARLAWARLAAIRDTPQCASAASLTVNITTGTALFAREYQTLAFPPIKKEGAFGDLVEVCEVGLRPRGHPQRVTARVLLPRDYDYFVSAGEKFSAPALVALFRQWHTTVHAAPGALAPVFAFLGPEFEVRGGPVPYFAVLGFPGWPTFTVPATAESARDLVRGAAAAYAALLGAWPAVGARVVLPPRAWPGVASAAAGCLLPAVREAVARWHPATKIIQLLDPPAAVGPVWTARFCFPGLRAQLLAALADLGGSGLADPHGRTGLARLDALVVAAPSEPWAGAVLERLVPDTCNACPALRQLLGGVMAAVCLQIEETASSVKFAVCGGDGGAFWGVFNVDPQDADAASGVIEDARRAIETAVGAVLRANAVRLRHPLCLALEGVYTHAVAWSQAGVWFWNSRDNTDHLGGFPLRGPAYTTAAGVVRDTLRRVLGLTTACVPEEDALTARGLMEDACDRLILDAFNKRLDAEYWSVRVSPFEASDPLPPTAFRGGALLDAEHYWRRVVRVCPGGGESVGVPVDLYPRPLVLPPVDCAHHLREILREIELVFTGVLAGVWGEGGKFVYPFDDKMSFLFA
T1 sequence (P10236 whole entry): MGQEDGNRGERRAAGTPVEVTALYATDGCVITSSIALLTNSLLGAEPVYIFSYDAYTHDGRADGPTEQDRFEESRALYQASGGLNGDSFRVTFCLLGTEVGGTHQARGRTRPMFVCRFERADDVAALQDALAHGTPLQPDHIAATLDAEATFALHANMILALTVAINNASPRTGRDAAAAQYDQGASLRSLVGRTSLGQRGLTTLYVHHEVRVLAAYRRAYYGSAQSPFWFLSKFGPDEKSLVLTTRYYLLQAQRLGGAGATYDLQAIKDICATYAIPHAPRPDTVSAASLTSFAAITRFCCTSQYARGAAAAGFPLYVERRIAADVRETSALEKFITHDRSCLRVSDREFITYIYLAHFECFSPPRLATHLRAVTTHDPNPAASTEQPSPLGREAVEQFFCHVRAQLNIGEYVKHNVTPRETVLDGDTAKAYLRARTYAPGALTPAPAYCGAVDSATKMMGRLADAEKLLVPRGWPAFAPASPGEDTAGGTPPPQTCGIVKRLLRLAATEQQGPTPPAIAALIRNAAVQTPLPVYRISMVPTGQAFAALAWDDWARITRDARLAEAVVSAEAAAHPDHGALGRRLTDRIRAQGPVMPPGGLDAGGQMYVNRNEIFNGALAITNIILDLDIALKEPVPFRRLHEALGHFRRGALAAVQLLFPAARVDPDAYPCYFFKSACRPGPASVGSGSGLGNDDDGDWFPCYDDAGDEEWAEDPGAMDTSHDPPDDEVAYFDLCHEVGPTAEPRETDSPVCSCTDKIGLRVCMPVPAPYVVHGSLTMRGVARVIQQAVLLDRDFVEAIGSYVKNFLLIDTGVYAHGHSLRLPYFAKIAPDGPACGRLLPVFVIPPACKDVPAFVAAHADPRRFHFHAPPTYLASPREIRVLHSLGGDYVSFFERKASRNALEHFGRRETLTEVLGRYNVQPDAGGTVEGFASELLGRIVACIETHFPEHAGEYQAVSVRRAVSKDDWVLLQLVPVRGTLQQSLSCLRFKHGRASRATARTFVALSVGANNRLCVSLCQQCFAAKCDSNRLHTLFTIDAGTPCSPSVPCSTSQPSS

Row | Compound | EC50 (HSV-1 strain F or KOS) | IC50 (HSV-1 helicase-primase) | EC50 (HCMV (strain AD169) [1]) | EC50 (HCMV (strain AD169) [2]) | effect on cutaneous lesions [3] | effect on cutaneous lesions [4]
1 | CC(c1ccccc1)N(CC(=O)Nc1ccc(-c2csc(N)n2)cc1)C(=O)C1CCCCC1 (centres unmarked) [Example 52] | 13 nM | 87 nM | 6000 nM | 1300 nM |  | 
2 | Nc1nc(-c2ccc(NC(=O)CN(CC3CCCCC3)C(=O)c3cccnc3)cc2)cs1 [Example 64] | 1700 nM | 2500 nM | 20000 nM | 750 nM |  | 
3 | CC(c1ccccc1)N(CC(=O)Nc1ccc(-c2csc(N)n2)cc1)C(=O)C1CCCCC1 (centres unmarked) [Example 53] | 3 nM | 38 nM | 12000 nM | 3200 nM |  | 
4 | Nc1nc2c(ncn2COCCO)c(=O)[nH]1 [acyclovir] |  |  |  |  | no effect | no effect
